Measurements as given in PMC3985256, “Synthesis of Brominated 2-Phenitidine Derivatives as Valuable Inhibitors of Cholinesterases for the Treatment of Alzheimer’s Disease” (Iranian Journal of Pharmaceutical Research : IJPR, 2014).
Read-outs that look alike come from different tables or passages of the source.

How the values were obtained:
Assay type in all cases: biochemical
[1] = biological target: acetylcholinesterase (AChE) (Homo sapiens, UniProt P22303); test: Acetylcholinesterase inhibition assay; details: for inhibition at 500 µM: read-out: Acetylcholinestrase (AChE) inhibition (%) at 0.5 mM
Chain of acetylcholinesterase (AChE) (P22303 32-614): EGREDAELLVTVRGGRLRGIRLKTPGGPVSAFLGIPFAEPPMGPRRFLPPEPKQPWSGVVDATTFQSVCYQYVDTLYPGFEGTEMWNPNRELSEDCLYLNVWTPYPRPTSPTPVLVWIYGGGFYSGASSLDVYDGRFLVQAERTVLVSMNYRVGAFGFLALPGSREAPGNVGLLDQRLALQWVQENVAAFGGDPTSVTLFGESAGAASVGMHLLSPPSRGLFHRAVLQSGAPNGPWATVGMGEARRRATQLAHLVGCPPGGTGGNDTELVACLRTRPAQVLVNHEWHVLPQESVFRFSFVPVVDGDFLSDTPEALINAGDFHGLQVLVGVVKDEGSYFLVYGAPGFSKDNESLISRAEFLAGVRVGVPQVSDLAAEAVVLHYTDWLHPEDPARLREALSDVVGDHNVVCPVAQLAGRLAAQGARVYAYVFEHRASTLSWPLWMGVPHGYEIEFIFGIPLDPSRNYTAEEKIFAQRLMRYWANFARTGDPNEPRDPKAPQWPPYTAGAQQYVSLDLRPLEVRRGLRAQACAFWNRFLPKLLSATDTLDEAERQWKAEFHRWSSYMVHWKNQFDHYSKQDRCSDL
Protocol: The AChE inhibition activity was performed according to the reported method ([14]) with slight modifications. Total volume of the reaction mixture was 100 μL. It contained 60 μL Na2HPO4 buffer with concentration of 50 mM and pH 7.7. Ten μL test compound (0.5 mM well^-1) was added, followed by the addition of 10 μL (0.005 unit well^-1) enzyme. The contents were mixed and pre-read at 405 nm. Then contents were pre-incubated for 10 min at 37 °C. The reaction was initiated by the addition of 10 μL of 0.5 mM well^-1 substrate (acetylthiocholine iodide), followed by the addition of 10 μL DTNB (0.5 mM well^-1). After 15 min of incubation at 37 °C, absorbance was measured at 405 nm. Synergy HT (BioTek, USA) 96-well plate reader was used in all experiments. All experiments were carried out with their respective controls in triplicate. […] The percent inhibition was calculated by the help of following equation )[19] (.
(§1) Inhibition %=Control-Test/Control×100
(§2) IC50 values (concentration at which there is 50% enzyme inhibition) of compounds were calculated using EZ-Fit Enzyme kinetics software (Perella Scientific Inc. Amherst, USA).

[2] = biological target: butyrylcholinesterase (BChE) (Homo sapiens, UniProt P06276); test: Butyrylcholinesterase inhibition assay; details: for inhibition at 500 µM: read-out: Butyrylcholinesterase (BChE) inhibition (%) at 0.5 mM
Chain of butyrylcholinesterase (BChE) (P06276 29-602): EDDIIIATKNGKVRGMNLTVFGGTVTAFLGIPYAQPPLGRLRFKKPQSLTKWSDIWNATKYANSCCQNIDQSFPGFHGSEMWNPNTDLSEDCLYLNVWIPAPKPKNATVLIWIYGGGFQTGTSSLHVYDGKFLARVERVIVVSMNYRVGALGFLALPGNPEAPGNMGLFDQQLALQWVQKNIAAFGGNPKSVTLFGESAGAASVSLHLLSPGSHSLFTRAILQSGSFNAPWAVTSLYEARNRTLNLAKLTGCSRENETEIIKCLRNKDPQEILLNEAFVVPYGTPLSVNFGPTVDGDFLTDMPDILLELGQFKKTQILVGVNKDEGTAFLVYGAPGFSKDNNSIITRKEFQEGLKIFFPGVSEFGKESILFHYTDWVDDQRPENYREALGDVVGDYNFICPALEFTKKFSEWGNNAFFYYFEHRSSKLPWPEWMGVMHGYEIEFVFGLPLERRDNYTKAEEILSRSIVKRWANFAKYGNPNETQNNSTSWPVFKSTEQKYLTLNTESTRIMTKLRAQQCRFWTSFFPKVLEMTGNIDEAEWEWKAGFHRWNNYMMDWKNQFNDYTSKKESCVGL
Protocol: The BChE inhibition activity was performed according to the reported method ([14],[17]) with slight modifications. Total volume of the reaction mixture was 100 μL containing 60 μL, Na2HPO4 buffer, 50 mM and pH 7.7. Ten μL test compound 0.5 mM well^-1, followed by the addition of 10 μL (0. 5 unit well^-1) BChE. The contents were mixed and pre-read at 405 nm. Then contents were pre-incubated for 10 min at 37 °C. The reaction was initiated by the addition of 10 μL of 0.5 mM well^-1 substrate (butyrylthiocholine bromide), followed by the addition of 10 μL DTNB (0.5 mM well^-1). After 15 min of incubation at 37 °C, absorbance was measured at 405 nm. Synergy HT (BioTek, USA) 96-well plate reader was used in all experiments. All experiments were carried out with their respective controls in triplicate. […] The percent inhibition was calculated by the help of following equation.
as §1, §2

lipoxygenase (LOX) = biological target: T1, lipoxygenase (LOX) (Glycine max, UniProt P08170); test: Lipoxygenase inhibition assay; details: n = 3, mean ± sem; for inhibition at 500 µM: 0.5 mM
T1 sequence (P08170 1-839): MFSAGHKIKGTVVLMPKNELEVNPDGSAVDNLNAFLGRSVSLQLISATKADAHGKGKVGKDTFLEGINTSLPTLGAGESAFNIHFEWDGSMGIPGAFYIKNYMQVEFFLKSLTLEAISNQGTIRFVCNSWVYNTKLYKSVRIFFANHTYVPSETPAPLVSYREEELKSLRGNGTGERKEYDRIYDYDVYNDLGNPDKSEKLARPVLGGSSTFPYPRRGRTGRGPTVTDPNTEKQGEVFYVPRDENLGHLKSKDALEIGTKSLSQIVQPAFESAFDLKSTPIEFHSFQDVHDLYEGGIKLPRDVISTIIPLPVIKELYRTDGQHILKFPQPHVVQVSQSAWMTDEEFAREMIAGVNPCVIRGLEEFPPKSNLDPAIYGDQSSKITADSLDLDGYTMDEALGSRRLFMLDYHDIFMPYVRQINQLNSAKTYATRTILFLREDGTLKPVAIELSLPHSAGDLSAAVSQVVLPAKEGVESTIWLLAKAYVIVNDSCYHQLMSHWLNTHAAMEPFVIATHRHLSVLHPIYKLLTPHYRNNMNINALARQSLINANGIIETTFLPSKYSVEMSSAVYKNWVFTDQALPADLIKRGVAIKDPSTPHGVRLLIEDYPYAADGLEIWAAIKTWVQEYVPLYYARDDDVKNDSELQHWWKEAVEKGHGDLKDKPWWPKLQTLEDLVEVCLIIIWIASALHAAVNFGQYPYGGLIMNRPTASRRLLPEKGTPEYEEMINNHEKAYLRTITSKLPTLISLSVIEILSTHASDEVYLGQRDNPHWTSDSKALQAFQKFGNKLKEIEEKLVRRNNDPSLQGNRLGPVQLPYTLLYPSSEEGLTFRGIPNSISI
Protocol: Lipoxygenase activity was assayed according to the reported method ([18]-[20]) but with slight modifications. A total volume of 200 μL assay mixture contained 150 μL sodium phosphate buffer (100 mM, pH 8.0), 10 μL test compound and 15 μL purified lipoxygenase enzyme (Sigma, USA). The contents were mixed and pre-read at 234 nm and pre-incubated for 10 min at 25 °C. The reaction was initiated by the addition of 25 μL substrate solution. The change in absorbance was observed after 6 min at 234 nm. Synergy HT (BioTek, USA) 96-well plate reader was used in all experiments. All reactions were performed in triplicates. The positive and negative controls were included in the assay. Baicalein (0.5 mM well^-1) was used as a positive control. The percentage inhibition was calculated by formula as follows.

[3] = n = 3, mean ± sem, read-out: Acetylcholinestrase (AChE) (IC50)
[4] = n = 3, mean ± sem, read-out: Butyrylcholinesterase (BChE) (IC50)

Compound | inhibition at 500 µM ([1]; 0.5 mM, n = 3, mean ± sem) | IC50 [1, 3] | inhibition at 500 µM ([2]; 0.5 mM, n = 3, mean ± sem) | IC50 [2, 4] | inhibition at 500 µM (lipoxygenase (LOX)) | Lipoxygenase (LOX) (IC50) (lipoxygenase (LOX)) | IC50 (lipoxygenase (LOX)) | IC50 [1] | inhibition at 500 µM [1] | IC50 [2] | inhibition at 500 µM [2] | Acetylcholinestrase (AChE) (IC50) ([1]; n = 3, mean ± sem)
C=CCN(c1cc(Br)c(Br)cc1OCC)S(=O)(=O)c1ccccc1 [Compound 6c, N-Allyl -N-(4,5-dibromo-2-ethoxyphenyl)benzenesulfonamide] | 72.22 ± 0.55% | 143.91 ± 0.08 µM | 80.75 ± 0.68% | 68.41 ± 0.21 µM | 66.26 ± 0.54% |  |  |  |  |  |  | 
CCOc1cc(Br)c(Br)cc1N(Cc1cccc(Cl)c1)S(=O)(=O)c1ccccc1 [Compound 6i] | 82.54 ± 0.36% | 73.9 ± 0.87 µM | 91.78 ± 0.33% | 57.11 ± 0.46 µM | 49.6 ± 0.64% | NIL |  |  |  |  |  | 
CCOc1cc(Br)c(Br)cc1N(Cc1ccc(Br)cc1)S(=O)(=O)c1ccccc1 [Compound 6h] | 74.31 ± 0.11% | 145.6 ± 0.21 µM | 87.91 ± 0.25% | 60.11 ± 0.34 µM | 37.04 ± 0.28% | NIL |  |  |  |  |  | 
CCOc1cc(Br)c(Br)cc1N(Cc1ccccc1)S(=O)(=O)c1ccccc1 [Compound 6e, N-Benzyl-N-(4,5-dibromo-2-ethoxyphenyl)benzenesulfonamide] | 79.27 ± 0.63% | 88.21 ± 0.17 µM | 85.92 ± 0.28% | 58.71 ± 0.08 µM | 31.29 ± 0.18% | NIL |  |  |  |  |  | 
CCOc1cc(Br)c(Br)cc1N(Cc1ccc(Cl)cc1)S(=O)(=O)c1ccccc1 [Compound 6l] | 82.94 ± 0.15% | 126.61 ± 0.02 µM | 66.31 ± 0.11% | 190.31 ± 0.17 µM | 55.5 ± 0.84% |  |  |  |  |  |  | 
O=c1cc(-c2ccccc2)oc2cc(O)c(O)c(O)c12 [Baicalein, reference compound] |  |  |  |  |  |  | 22.4 ± 1.3 µM |  |  |  |  | 
CCOc1cc(Br)c(Br)cc1N(CCBr)S(=O)(=O)c1ccccc1 [Compound 6d] |  |  |  |  | 83.95 ± 0.22% |  |  | 131.9 ± 0.16 µM | 73.21 ± 0.71% | 45.31 ± 0.17 µM | 87.2 ± 0.96% | 
CCOc1cc(Br)c(Br)cc1N(Cc1ccc(F)cc1)S(=O)(=O)c1ccccc1 [Compound 6j] | 81.45 ± 0.12% | 71.31 ± 0.09 µM | 87.21 ± 0.31% | 60.2 ± 0.66 µM | 51.23 ± 0.31% |  |  |  |  |  |  | 
CCOc1cc(Br)c(Br)cc1N(CCCc1ccccc1)S(=O)(=O)c1ccccc1 [Compound 6g, N-Phenylpropyl-N-(4,5-dibromo-2-ethoxyphenyl)benzenesulfonamide] | 77.18 ± 0.33% | 158.41 ± 0.11 µM | 90.14 ± 0.77% | 57.5 ± 0.63 µM | 75.21 ± 0.11% |  |  |  |  |  |  | 
CCOc1cc(Br)c(Br)cc1N(CCc1ccccc1)S(=O)(=O)c1ccccc1 [Compound 6f, N-Phenylethyl-N-(4,5-dibromo-2-ethoxyphenyl)benzenesulfonamide] | 77.58 ± 0.66% | 86.41 ± 0.51 µM | 88.73 ± 0.14% | 53.41 ± 0.51 µM | 90.02 ± 0.37% |  |  |  |  |  |  | 
CCOc1cc(Br)c(Br)cc1NS(=O)(=O)c1ccccc1 [Compound 4, N-(4,5-dibromo-2-ethoxyphenyl)benzenesulfonamide] | 44.15 ± 0.19% |  | 80.75 ± 0.17% | 70.21 ± 0.18 µM | 11.6 ± 0.27% | NIL |  |  |  |  |  | NIL
CCOc1cc(Br)c(Br)cc1N(Cc1ccccc1Cl)S(=O)(=O)c1ccccc1 [Compound 6k] | 86.71 ± 0.22% | 52.41 ± 0.27 µM | 93.66 ± 0.82% | 42.21 ± 0.25 µM | 33.23 ± 0.22% | NIL |  |  |  |  |  | 
CCOc1cc(Br)c(Br)cc1N(C(C)C)S(=O)(=O)c1ccccc1 [Compound 6b, N-Isopropyl -N-(4,5-dibromo-2-ethoxyphenyl)benzenesulfonamide] | 79.07 ± 0.38% | 87.31 ± 0.11 µM | 56.57 ± 0.55% | > 300 µM | 83.54 ± 0.33% |  |  |  |  |  |  | 
CCOc1cc(Br)c(Br)cc1N(CC)S(=O)(=O)c1ccccc1 [Compound 6a, N-Ethyl-N-(4,5-dibromo-2-ethoxyphenyl)benzenesulfonamide] | 28.9 ± 0.31% |  | 85.33 ± 0.26% | 54.9 ± 0.85 µM | 81.75 ± 0.71% |  |  |  |  |  |  | NIL
